Measurements published in ChEMBL document CHEMBL4049401, “Three-component, one-pot synthesis of anthranilamide Schiff bases bearing 4-aminoquinoline moiety as Mycobacterium tuberculosis gyrase inhibitors” (Bioorg Med Chem Lett, 2017).
Converted amounts (≈) assume the structure as drawn.

What was measured:
[1] = system: Mycobacterium tuberculosis; assay: Antimycobacterial activity against Mycobacterium tuberculosis H37Rv ATCC 27294 after 5 days by microplate alamar blue assay; type: functional; settings: H37Rv ATCC 27294, 120 h
[2] = n-octanol/water partition coefficient, log P of the compound; type: physicochemical
[3] = Cytotoxicity against African green monkey Vero cells assessed as cell viability at 100 uM by MTT assay relative to control; type: cell-based; settings: chlorocebus sabaeus, read-out: Activity

SMILES | MIC [1] [µM] | logP [2] | viability at 100 µM [3] [%]
O=C(NNc1ccnc2cc(Cl)ccc12)c1ccccc1/N=C/c1ccc(Cl)cc1Cl | 6.25 (≈ 2.94 µg/mL) | 6.22 | 87.6
CN(C)c1ccc(/C=N/c2ccccc2C(=O)NNc2ccnc3cc(Cl)ccc23)cc1 | 3.12 (≈ 1.39 µg/mL) | 5.03 | 88.8
O=C(NNc1ccnc2cc(Cl)ccc12)c1ccccc1/N=C/C=C/c1ccccc1 | 3.12 (≈ 1.33 µg/mL) | 5.54 | 90.2
COc1cc(/C=N/c2ccccc2C(=O)NNc2ccnc3cc(Cl)ccc23)cc(OC)c1OC | 6.25 (≈ 3.07 µg/mL) | 4.94 | 89.4
Cc1ccc(/C=N/c2ccccc2C(=O)NNc2ccnc3cc(Cl)ccc23)cc1 | 0.78 (≈ 0.324 µg/mL) | 5.31 | 87.1
O=C(NNc1ccnc2cc(Cl)ccc12)c1ccccc1/N=C/c1cc2ccccc2nc1Cl | 25 (≈ 12.2 µg/mL) | 6 | 94.3
O=C(NNc1ccnc2cc(Cl)ccc12)c1ccccc1/N=C/c1ccc(F)cc1 | 6.25 (≈ 2.62 µg/mL) | 5.18 | 90.7
O=C(NNc1ccnc2cc(Cl)ccc12)c1ccccc1/N=C/c1cccs1 | 6.25 (≈ 2.54 µg/mL) | 4.78 | 89.5
O=C(NNc1ccnc2cc(Cl)ccc12)c1ccccc1/N=C/c1ccc(Cl)c(Cl)c1 | 25 (≈ 11.7 µg/mL) | 6.22 | 90.2
COc1cc(/C=N/c2ccccc2C(=O)NNc2ccnc3cc(Cl)ccc23)ccc1Oc1ccnc2cc(Cl)ccc12 | 3.12 (≈ 1.9 µg/mL) | 7.74 | 89.5
O=C(NNc1ccnc2cc(Cl)ccc12)c1ccccc1/N=C/c1ccc([N+](=O)[O-])cc1 | 25 (≈ 11.1 µg/mL) | 4.58 | 88.6
O=C(NNc1ccnc2cc(Cl)ccc12)c1ccccc1/N=C/c1ccc(Cl)cc1 | 3.12 (≈ 1.36 µg/mL) | 5.62 | 86.7
COc1ccc(/C=N/c2ccccc2C(=O)NNc2ccnc3cc(Cl)ccc23)cc1 | 1.56 (≈ 0.672 µg/mL) | 5 | 88.9
O=C(NNc1ccnc2cc(Cl)ccc12)c1ccccc1/N=C/c1cccc(Cl)c1Cl | 6.25 (≈ 2.94 µg/mL) | 6.1 | 89.1
N#Cc1ccc(/C=N/c2ccccc2C(=O)NNc2ccnc3cc(Cl)ccc23)cc1 | 25 (≈ 10.6 µg/mL) | 4.83 | 87.2
COc1ccc(/C=N/c2ccccc2C(=O)NNc2ccnc3cc(Cl)ccc23)cc1OC | 6.25 (≈ 2.88 µg/mL) | 4.97 | 89.2
O=C(NNc1ccnc2cc(Cl)ccc12)c1ccccc1/N=C/c1ccc(Br)cc1 | 6.25 (≈ 3 µg/mL) | 5.76 | 88.5
O=C(NNc1ccnc2cc(Cl)ccc12)c1ccccc1/N=C/c1ccncc1 | 25 (≈ 10 µg/mL) | 3.86 | 85.7
O=C(NNc1ccnc2cc(Cl)ccc12)c1ccccc1/N=C/c1cc2ccccc2[nH]c1=O | 25 (≈ 11.7 µg/mL) | 4.65 | 91.1
O=C(NNc1ccnc2cc(Cl)ccc12)c1ccccc1/N=C/c1ccc(O)cc1 | 25 (≈ 10.4 µg/mL) | 4.65 | 90.1
O=C(NNc1ccnc2cc(Cl)ccc12)c1ccccc1/N=C/c1ccccc1Cl | 25 (≈ 10.9 µg/mL) | 5.5 | 88.5
O=C(O)c1cn(C2CC2)c2cc(N3CCNCC3)c(F)cc2c1=O [CIPROFLOXACIN] | 12.5 (≈ 4.14 µg/mL) | – | –
NC(=O)c1cnccn1 [PYRAZINAMIDE] | 3.12 (≈ 0.384 µg/mL) | -0.71 | –
